Experiments:
Assay type in all cases: cell-based
hBmal1 gene [1] = experiment: Clock gene expression regulation, hBmal1 expressed amount by RT-PCR in cultured human skin fibroblast cells; conditions: for Relative expressed amount of hBmal1 (16 hours): 50 ppm test substance, 16 hours after addition, relative to RPLP0, control 0.48, *p < 0.05; for expressed amount of hBmal1 gene in comparison with the control: 50 ppm, 16 hours, Dunnett's test one-sided 5%
Method: (§1) The results above confirm that in an evaluation system using cultured human skin fibroblast cells, clock genes acquire a circadian rhythm when stimulated with cortisol. Because it is desirable to evaluate during a time period when the expressed amount is high, the clock gene expression regulation effects of the test substances were evaluated based on the expressed amount of the clock gene 16 hours after stimulation in the case of hBmal1 and 2 hours after stimulation in the case of hPer1.
(§2) Fibroblasts cells from normal human skin (Cell Application, Inc.) were seeded by methods similar to those used above, each chemical was added on the 6th day of culture to a concentration of 50 ppm, and the cells were sampled after 2 hours and after 16 hours. The same amount of ethanol was added instead of the test substance as a control. RNA was extracted from the cells with a commercial RNA extraction kit, and the expressed amounts of the hBmal1 and hPer1 genes were measured by RT-PCR using a commercial PCR primer (Perfect Real Time Primer, Takara Bio). Similarly, the expressed amount of the housekeeping gene RPLP0 was assayed and used as an internal standard to calculate the expressed amounts of the target genes relative to the expressed amount of RPLP0. Dunnett's multiple comparison test was performed on the obtained values, and an effect was recognized if there was a significant difference with a one-sided 5% risk factor in comparison with the control.

hPer1 gene [2] = experiment: Clock gene expression regulation, hPer1 expressed amount by RT-PCR in cultured human skin fibroblast cells; conditions: for Relative expressed amount of hPer1 (2 hours): 50 ppm test substance, 2 hours after addition, relative to RPLP0, control 0.24, *p < 0.05; for expressed amount of hPer1 gene in comparison with the control: 50 ppm, 2 hours, Dunnett's test one-sided 5%
Method: as §1, §2

hPer1 gene [3] = experiment: Induction of circadian rhythm of hPer1 expression with cortisol in cultured human skin fibroblast cells; conditions: 50 ng/ml cortisol, 2 hours of treatment, cells sampled over time (FIG. 2)
Method: (§3) It was confirmed that a circadian rhythm of clock gene expression can be induced in a system using cultured human skin fibroblast cells.
(§4) As the cultured human fibroblast cells, fibroblast cells from normal human skin were purchased (Cell Application, Inc.) and used in the experiments. They were seeded on DMEM medium with 10% FBS, 20 mM HEPES, Glutamax and an antibacterial agent added thereto, and cultured at 37° C. in 5% CO2. On the 6th day of culture, 50 ng/ml of cortisol was added, and after 2 hours of treatment the cells were sampled over time. RNA was extracted from the cells with a commercial RNA extraction kit, and the expressed amounts of the hBmal1 and hPer1 genes were measured by RT-PCR using a commercial PCR primer (Perfect Real Time Primer, Takara Bio). Similarly, the expressed amount of the housekeeping gene RPLP0 was assayed and used as an internal standard to calculate the expressed amounts of the target genes relative to the expressed amount of RPLP0.
(§5) In the body, cortisol and other glucocorticoids are involved in regulating the biological clock in peripheral tissue and the like, and it is thought that blood concentrations of cortisol rise at the time of awakening in the morning, resetting the biological clock. […]

hBmal1 gene [4] = experiment: Induction of circadian rhythm of hBmal1 expression with cortisol in cultured human skin fibroblast cells; conditions: 50 ng/ml cortisol, 2 hours of treatment, cells sampled over time (FIG. 2)
Method: as §3, §4, §5

| Compound | Relative expressed amount of hBmal1 (16 hours) (hBmal1 gene [1]) | expressed amount of hBmal1 gene in comparison with the control (hBmal1 gene [1]) | Relative expressed amount of hPer1 (2 hours) (hPer1 gene [2]) | expressed amount of hPer1 gene in comparison with the control (hPer1 gene [2]) | cycle of circadian rhythm of hPer1 expression as a result of cortisol stimulation (hPer1 gene [3]) | cycle of circadian rhythm of hBmal1 expression as a result of cortisol stimulation (hBmal1 gene [4]) |
| --- | --- | --- | --- | --- | --- | --- |
| C=C1CC[C@H]2O[C@]2(C)CC[C@@H]2[C@@H]1CC2(C)C [Caryophyllene oxide, (1R,4R,6R,10S)-4,12,12-trimethyl-9-methylene-5-oxatricyclo[8.2.0.04.6]dodecane] | 3.50* | significantly increased | 2.29* | significantly increased | – | – |
| COC(=O)c1ccccc1N [Methyl 2-aminobenzoate] | 1.19* | significantly increased | 0.64* | significantly increased | – | – |
| CNc1ccccc1C(=O)OC [Methyl 2-methylaminobenzoate] | 2.52* | significantly increased | 0.64* | significantly increased | – | – |
| COC(=O)c1ccccc1C [Methyl 2-methylbenzoate, methyl 2-methylbenzoate] | 1.01* | significantly increased | 0.44* | significantly increased | – | – |
| C[C@]12CCC(=O)C=C1CC[C@@H]1[C@@H]2[C@@H](O)C[C@@]2(C)[C@H]1CC[C@]2(O)C(=O)CO [cortisol] | – | – | – | – | roughly 24 hour | roughly 24 hour |

Source: US20140057979A1, “Expression Modulator For Clock Gene” (Shiseido Company, Ltd., priority 2012, published 2014)
